“And” between values parts separate entries of the source, which are not always exact repeats. Equal entries are not always repeated. “Also recorded” adds a separate entry of the source.
Columns and labels:
[1] = Visceral sensitivity: abdominal contractures produced by rectal distension after acetic acid irritation; assay type: in vivo; conditions: rat, 10 min distension, mean of five rats, placebo 23.8 ± 1.6, * p < 0.05 vs placebo
Source text: The first model consists in observing, in the rat, the abdominal contractures produced by a rectal distension applied to a mucous membrane which has been irritated beforehand. The number of contractures is proportional to the intensity of the pain experienced. A similar model has been described in Neurogastroenterol. and Mot. (1994), 6, 140, where it is shown that the products which decrease the perception of pain in man decrease the number of contractures observed in the rat.
Male Sprague-Dawley rats weighing 180 g are deprived of food for 12 hours. Under slight fluothane anaesthesia, an intrarectal probe is introduced (5 cm from the anus) and 1.5 ml of 1% dilute acetic acid are injected. The acid immediately flows out via the anus. This rapid contact of the acid makes it possible to irritate the mucous membrane (model for rectal colitis). 1 h 30 after irritation, a small latex balloon (diameter when empty 2 mm, length 1 cm), mounted on a polyurethane catheter (int. diameter 1 mm), is introduced into the rectum (5 cm from the anus) under slight fluothane anaesthesia. The catheter is attached to the base of the tail with adhesive tape and protected by a glass tube. The test product is administered by force feeding and the rat is then introduced into a crystallizing dish covered with a grid. The free ends of the tube and of the catheter are passed through the grid in order to carry out the dilations.
A distension is carried out 2 h 30 after irritating the rectum. The small balloon is dilated with 1.5 ml of distilled water (intracolic pressure equal to 60 mm Hg on average). Dilation is maintained for 10 minutes, during which the abdominal contractures are counted. The small balloon is then deflated by sucking off the distilled water.
They are expressed by the mean number of contractures observed with respect to five rats for the 10 minutes during which they are subjected to a distension.

[2] = target: T1, 5-HT3 receptors (Mus musculus, UniProt P23979); test: Affinity for 5-HT3 receptors, membrane preparations of NG 108-15 cells, tritiated BRL 43694 as ligand; assay type: binding; conditions: NG 108-15 cell membranes
T1 sequence (P23979 24-489): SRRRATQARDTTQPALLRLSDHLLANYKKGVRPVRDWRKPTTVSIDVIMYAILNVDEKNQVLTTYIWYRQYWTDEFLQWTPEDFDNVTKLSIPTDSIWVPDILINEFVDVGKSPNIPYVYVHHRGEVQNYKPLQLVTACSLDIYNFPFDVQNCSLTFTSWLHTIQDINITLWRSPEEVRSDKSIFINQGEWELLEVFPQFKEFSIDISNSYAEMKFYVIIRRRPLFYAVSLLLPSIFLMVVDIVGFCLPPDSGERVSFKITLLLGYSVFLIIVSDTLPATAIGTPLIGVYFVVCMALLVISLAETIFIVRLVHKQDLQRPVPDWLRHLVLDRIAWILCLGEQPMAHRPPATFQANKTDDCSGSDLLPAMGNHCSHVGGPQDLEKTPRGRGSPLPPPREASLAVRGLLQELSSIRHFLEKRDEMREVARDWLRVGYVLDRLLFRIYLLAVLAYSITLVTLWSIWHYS
Method: The affinity of the compounds for 5-HT3 receptors was measured according to the method described in Bioch. Pharmacol. (1990), 40, (7), 1541-1550, by using membrane preparations of NG 108-15 cells and tritiated BRL 43694 as specific ligand.

[3] = target: T2, 5-HT3 receptors (Rattus norvegicus, UniProt P35563); test: Bezold-Jarisch reflex: inhibition of bradycardia induced by serotonin (5-HT3 antagonist activity in vivo); conditions: iv; read-out: IC50 for antagonism of serotonin-induced bradycardia
T2 construct: from tissue; host or cells: whole animal (endogenous receptor)
T2 sequence (P35563 24-483): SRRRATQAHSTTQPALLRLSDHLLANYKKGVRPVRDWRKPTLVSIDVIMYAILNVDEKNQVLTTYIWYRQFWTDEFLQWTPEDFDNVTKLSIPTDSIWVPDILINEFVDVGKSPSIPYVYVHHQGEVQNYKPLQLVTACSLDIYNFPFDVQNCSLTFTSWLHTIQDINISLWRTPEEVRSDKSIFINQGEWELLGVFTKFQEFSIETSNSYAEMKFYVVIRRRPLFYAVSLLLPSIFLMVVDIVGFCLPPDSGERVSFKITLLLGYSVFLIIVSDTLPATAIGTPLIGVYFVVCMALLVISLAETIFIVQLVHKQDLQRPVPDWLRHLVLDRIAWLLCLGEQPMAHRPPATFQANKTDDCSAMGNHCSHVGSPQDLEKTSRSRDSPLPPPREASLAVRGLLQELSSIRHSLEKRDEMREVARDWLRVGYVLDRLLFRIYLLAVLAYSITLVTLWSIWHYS
Method: The 5-HT3 antagonist activity of products was evaluated in vivo by measuring their property of inhibiting a bradycardia induced by serotonin, according to the method described in J. Pharm. & Exp. Therap. (1989), 248, 197-201.

[4] = Ulcerative colitis induced by intracolic trinitrobenzenesulphonic acid (TNB): weight, macroscopic and histological analysis of colon; assay type: in vivo, rat; conditions: for Mean weight of the animals: in g
Source text: A model for ulcerative colitis induced in the rat by an intracolic instillation of trinitrobenzenesulphonic acid has already been described, for example in Gut (1992), 33, 1498-1503.
The beneficial effect of a treatment on the development of this colitis can be evaluated, on the one hand, by the overall state of health of the animal, represented for example by the change in weight, and, on the other hand, by a histological study of the colon at the end of the experiment.
Male Sprague-Dawley rats (140-150 g), deprived of food since the previous day, are subjected, under general anaesthesia (isoflurane), to irritation of the mucous membrane of the distal colon (7 cm from the anus) with 1 ml of a 50 mg/ml aqueous trinitrobenzenesulphonic acid (TNB) solution. On the following day, the rats are randomized in two equal-sized groups (n=7) which then receive the treatment (placebo or product) by forcefeeding, mornings and evenings. The products are administered at 1 mg/kg p.o. twice daily.
The treatment is administered for the ten days which follow irritation of the colon. The animals are weighed every morning from D5 to D10. The animals are deprived of food on D9 and humanely killed on D10. The colons are removed and macroscopically and then histologically examined.
The macroscopic appearance of the colons was graded as follows:
Sections of the colon are fixed with formaldehyde and enclosed in paraffin blocks. 5 μm sections are prepared, stained with haemalum-eosin and evaluated by optical microscopy according to the following gradings:
The colon was divided into three mucous, submucous and muscular layers and each layer was graded according to the preceding criteria.
The sum of the gradings attributed to each substructure defines, per animal, an index which takes into account both the afflux of the inflammatory cells and the architectural distortion.

Structure (SMILES): CC1CCN(C[C@H]2CCCC[C@H]2NC(=O)c2cc(Cl)c(N)cc2OC(C)C)CC1 (relative stereo) [Compound 7]
- No. of contractures ± standard deviation ([1]; 0.3 mg/kg p.o.): 7.6 ± 0.5

Structure (SMILES): COc1cc(N)c(Cl)cc1C(=O)N[C@@H]1CCCC[C@@H]1CN1CCC(C)(C)CC1 (relative stereo) [Compound 4]
- No. of contractures ± standard deviation ([1]; 0.3 mg/kg p.o.): 10.6 ± 4.2

Structure (SMILES): Cc1nccn1CC1CCc2c(c3ccccc3n2C)C1=O (stereo not shown) [ondansetron]
- Ki [2]: 0.016 µM
- ED50 [3]: ~3 µg/kg

Structure (SMILES): COc1cc(N)c(Cl)cc1C(=O)N[C@@H]1CCCC[C@@H]1CN1CCC(O)CC1 (relative stereo) [Compound 2]
- No. of contractures ± standard deviation ([1]; 0.3 mg/kg p.o.): 9.2 ± 5.3

Structure (SMILES): CC1CCN(C[C@H]2CCCC[C@H]2NC(=O)c2cc(Cl)c(N)cc2OC2CCCC2)CC1 [Compound 8]
- No. of contractures ± standard deviation ([1]; 0.3 mg/kg p.o.): 9.2 ± 1.3

Structure (SMILES): CC1CCN(C[C@H]2CCCC[C@H]2NC(=O)c2cc(Cl)c(N)cc2OCC2CC2)CC1 [Compound 6]
- change in weight versus placebo ([4]; 1 mg/kg p.o. twice daily, TNB colitis): significantly improved change in weight
- Mean weight of the animals ([4]; 5 days after treatment with TNB, 1 mg/kg p.o. twice daily, placebo 130 ± 8): 153 ± 15
- Mean weight of the animals ([4]; 6 days after treatment with TNB, 1 mg/kg p.o. twice daily, placebo 139 ± 18, * p < 0.05): 177 ± 23
- Mean weight of the animals ([4]; 7 days after treatment with TNB, 1 mg/kg p.o. twice daily, placebo 142 ± 20, * p < 0.05): 186 ± 27
- Mean weight of the animals ([4]; 8 days after treatment with TNB, 1 mg/kg p.o. twice daily, placebo 147 ± 23, * p < 0.05): 194 ± 34
- Mean weight of the animals ([4]; 9 days after treatment with TNB, 1 mg/kg p.o. twice daily, placebo 158 ± 30, * p < 0.05): 206 ± 39
- Index (histological; sum of gradings of mucous, submucous and muscular layers per animal) ([4]; D10, 1 mg/kg p.o. twice daily, each index value shared by the number of animals in the column beside it): 11 and 3 and 1 and 0
- Number of animals at macroscopic colon Stage 0 ([4]; Stage 0: no trace of irritation, D10, 1 mg/kg p.o. twice daily, placebo 0): 0
- Number of animals at macroscopic colon Stage 1 ([4]; Stage 1: slightly vasodilated mucous membrane, D10, placebo 0): 1
- Number of animals at macroscopic colon Stage 2 ([4]; Stage 2: vasodilated mucous membrane and adhesions, D10, placebo 0): 4
- Number of animals at macroscopic colon Stage 3 ([4]; Stage 3: haemorrhagic and sclerotic mucous membrane and adhesions, D10, placebo 3): 2
- Number of animals at macroscopic colon Stage 4 ([4]; Stage 4: ulcerated and haemorrhagic mucous membrane and adhesions, D10, placebo 3): 0
- seriousness of the macroscopic colon lesions versus placebo ([4]; chi-squared test, Stages 1 and 2 vs Stages 3 and 4): seriousness of the lesions is significantly greater with the placebo than with Compound 6; also recorded: lesional appearance of the colon is less serious
- inflammatory state of the colon (histology) versus placebo ([4]; chi-squared test, indices 0 to 5 vs 6 to 12): inflammatory state is significantly more serious treated with the placebo than treated with Compound 6; also recorded: decrease in the afflux of the inflammatory cells
- size of the class combining histological indices 0 to 5 ([4]; number of animals, placebo 0): 5
- size of the class of macroscopic Stages 1 and 2 ([4]; number of animals, placebo 0): 5
- size of the class combining histological indices 6 to 12 ([4]; number of animals, placebo 6): 2
- size of the class of macroscopic Stages 3 and 4 ([4]; number of animals, placebo 6): 2
- No. of contractures ± standard deviation ([1]; 0.1 mg/kg p.o.): 3.3 ± 1.9
- No. of contractures ± standard deviation ([1]; 0.3 mg/kg p.o.): 7.3 ± 2.6
- No. of contractures ± standard deviation ([1]; 1 mg/kg p.o.): 9.4

Structure (SMILES): COc1cc(N)c(Cl)cc1C(=O)N[C@@H]1CCCC[C@@H]1CN1CCC(CO)CC1 (relative stereo) [Compound 3]
- No. of contractures ± standard deviation ([1]; 0.3 mg/kg p.o.): 13.2 ± 2.4

Structure (SMILES): COc1cc(N)c(Cl)cc1C(=O)N[C@@H]1CCCC[C@@H]1CN1CCC(C(C)(C)C)CC1 (relative stereo) [Compound 5]
- No. of contractures ± standard deviation ([1]; 0.3 mg/kg p.o.): 10.6 ± 3.8

Structure (SMILES): CC1CCN(C[C@H]2CCCC[C@@H]2NC(=O)c2cc(Cl)c(N)cc2OCC2CC2)CC1 [Compound 9]
- No. of contractures ± standard deviation ([1]; 0.3 mg/kg p.o.): 6.3 ± 3.5

Structure (SMILES): COc1cc(N)c(Cl)cc1C(=O)N[C@@H]1CCCC[C@@H]1CN1CCC(C)CC1 [Compound 1]
- No. of contractures ± standard deviation ([1]; 0.3 mg/kg p.o.): 3.4 ± 2.1

— patent US5804589A, “Use of N-cyclohexyl benzamides for treating bowel disorders” (Laboratoires Jacques Logeais, priority 1995, dated 1998)
